Results published in article PMC5597121, “The human bitter taste receptor T2R38 is broadly tuned for bacterial compounds” (PLoS ONE, 2017).
“And” between values parts separate entries of the source, which are not always exact repeats. Identical values can stand only once. “Also recorded” adds a separate entry of the source. Like-named read-outs stand apart in the source and are kept apart here.

Columns and labels:
[1] = target: T1, T2R38 (Homo sapiens, UniProt P59533, A49P/I296V); test: Single cell calcium imaging, Peakrapid cells (Gα16gustducin44) transiently transfected with T2R38; type: cell-based; details: for average calcium response, % of the one induced by 0.1 mM of PTC: dissolved in DMSO 1.5% (209 mM); for specific activation of T2R38: ethanol-solubilized; for response of T2R38: solubilized in the aqueous buffer, 2 mM; for EC50: concentration-response curve, read-out: EC50
T1 construct: leader: first 45 amino acids of rat somatostatin receptor subtype 3 (SSTR3) (N); expressed in transfected cells; host or cells: Peakrapid cells (HEK293 derivative, ATCC CRL-2828) stably expressing Galpha16gustducin44, co-transfected with human RTP4
T1 sequence (P59533 1-333 A49P/I296V): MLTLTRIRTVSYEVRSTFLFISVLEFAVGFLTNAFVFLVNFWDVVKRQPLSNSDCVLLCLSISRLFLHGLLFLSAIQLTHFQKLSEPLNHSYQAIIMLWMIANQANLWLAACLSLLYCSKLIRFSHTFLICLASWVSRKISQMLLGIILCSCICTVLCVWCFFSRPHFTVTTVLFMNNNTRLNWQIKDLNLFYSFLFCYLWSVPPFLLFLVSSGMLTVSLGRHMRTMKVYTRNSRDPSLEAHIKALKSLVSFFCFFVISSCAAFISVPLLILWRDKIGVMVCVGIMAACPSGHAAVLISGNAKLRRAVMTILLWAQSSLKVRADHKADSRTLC
From the text: The coding sequences of either the functional (PAV, GenBank accession number AY258597.1) and non-functional (AVI, GenBank accession number AF494231.1) were amplified from human genomic DNA by polymerase chain reaction.
These coding sequences were cloned in a pEFIB backbone vector in translational fusion with the coding sequence of a leader sequence corresponding to the 45 first amino acids of the rat somatostatin receptor subtype 3 [20]. The constructs were verified by sequencing. The coding sequence of RTP4 (Genbank accession number AY562238.1) was amplified from human spleen cDNA and cloned a pCI backbone vector.
The Gα16gustducin44 sequence was generated by swapping the last 132 nucleotides of the G α16 with the corresponding terminal sequence of the Gα-gustducin [21] and was cloned in a pIRES-Puro plasmid. This vector was transfected in the Peakrapid cell line (ATCC reference: CRL-2828™; purchased from LGC Standards SARL, Molsheim, FRANCE), HEK293 cell line derivative, cultured in EMEM culture medium (reference BE12-136F; Lonza, Vervier, BELGIUM) supplemented with 10% of foetal bovine serum (Sigma-Aldrich, Bornem, Belgium) and 1 μg/ml of Puromycin to allow the selection of recombinant cell populations. Cell clones expressing the Gα16gustducin44 were selected and the clone presenting the best functional response of T2R38 to phenylthicarbamide was used for the study (see below).
(§1) The Peakrapid cell line expressing stably a chimeric Gα16gustducin44 G protein [21] was used. 40 000 cells were seeded in each well of a black/clear poly-D-lysine cellware pre-coated 96-well plate (Biocoat®, Becton-Dickinson, Erembodegem, Belgium) and transiently transfected with 50 ng of plasmid DNA containing the receptor sequence or not (empty vector) and with 50 ng of chaperone protein RTP4 per well. Forty hours after transfection, cells were incubated with the calcium-sensitive dye Fluo4 (Life Technologies, Oregon, USA) solubilized at 10 μg/ml in a buffer containing EMEM (150 mM NaCl, 5 mM KCl, 2 mM CaCl2, 1.2 mM MgCl2, 10 mM glucose), 10 mM HEPES, 0.01% (v/v) Pluronic F127, 0.1% (w/v) bovine serum albumin. After 1 h incubation at 37°C, cells were rinsed twice with the same buffer without Fluo4 and left in 50 μl buffer (prior ligand injection). Measurement were performed on a platform based on a motorized Axiobserver Z1 fluorescence microscope piloted by a Axiovision software (Zeiss, Jena, Germany) as described previously. For each selected well, images were taken 1 per second, during 30 seconds. 50 μl of the buffer containing the ligand twice concentrated was injected on the 2nd second of the time lapse record.
After time lapse record, the number of responding cells in each injected well was determined using ImageJ 1.34 (Rasband, W.S., ImageJ, National Institutes of Health, Bethesda, Maryland, USA, http://rsb.info.nih.gov/ij/1997-2004), and expressed as the percentage of the surface of a microscope field covered by activated cells with respect to the total surface of the field covered by confluent cells. Automated determination of the surface occupied by responding cells is easier to perform than a cell counting. The resulting percentage of positive surface provided a convenient estimation of the percentage of responding cells, as observed by comparing the percentage of positive surface and percentage of responsive cells determined by direct counting, in the same experiment. In agreement with the literature, the percentage of responding cells was proportional to the agonist concentration. During experiment in each plate, at least 2 wells were tested with phenylthiocarbamide (PTC) at 0.1 mM, which is one of the best characterized agonist of T2R38 in the literature. The activation of T2R38 by PTC allows normalization of the result of other tested molecules. The results were thus expressed as the percentage of PTC activation. […]

[2] = test system: mock transfected cells (empty vector); test: Single cell calcium imaging, control: mock transfected (empty vector) Peakrapid cells; type: cell-based, human
Experimental: as §1
After time lapse record, the number of responding cells in each injected well was determined using ImageJ 1.34 (Rasband, W.S., ImageJ, National Institutes of Health, Bethesda, Maryland, USA, http://rsb.info.nih.gov/ij/1997-2004), and expressed as the percentage of the surface of a microscope field covered by activated cells with respect to the total surface of the field covered by confluent cells. Automated determination of the surface occupied by responding cells is easier to perform than a cell counting. The resulting percentage of positive surface provided a convenient estimation of the percentage of responding cells, as observed by comparing the percentage of positive surface and percentage of responsive cells determined by direct counting, in the same experiment. In agreement with the literature, the percentage of responding cells was proportional to the agonist concentration. During experiment in each plate, at least 2 wells were tested with phenylthiocarbamide (PTC) at 0.1 mM, which is one of the best characterized agonist of T2R38 in the literature. The activation of T2R38 by PTC allows normalization of the result of other tested molecules. The results were thus expressed as the percentage of PTC activation. In scaling calcium imaging assays using this latter receptor, concentration-responses curves were performed and data were fitted to a four parameter logistic equation: y=min+ (max− min)/1+10 ^(logEC50−x)nH . Min and max are the minimum and the maximum values of the percentage of cell-activated surface respectively, y is the percentage of cell-activated surface at the x concentration and nH is the Hill coefficient.

[3] = 2mM (no organic solvent), listed as HSL-C4
[4] = 2mM in DMSO 1.5%, listed as HSL-C4
[5] = 2mM in EtOH 0,4%, listed as HSL-C4
[6] = 1mM in DMSO 1.5%, listed as HSL-C12
[7] = 1mM in EtOH 2%, listed as HSL-C12

In the case of CCCC(=O)N[C@H]1CCOC1=O [C4HSL, N-butyryl-L-homoserine lactone, reference compound], the “agonist activity on T2R38 (in words)” value [1] is reported as “are not agonists of the receptor in our hands”, the “percentage of surface covered by activated cells” value (“percentage of surface covered” for short) [1, 3] is reported as 0.38% and 0.93% and 0.34% and 0.53% and 0.11% and 0.17% and the “percentage of surface covered” value [1, 4] is reported as 6.92% and 3.48% and 5.97% and 2.36% and 9.56% and 4.46%. The “percentage of surface covered” value [1, 5] was 0.27% and 1.95% and 2.21% and 0.24% and 0.29% and 1.29%, the “average calcium response, % of the one induced by 0.1 mM of PTC” value [1] was 33% and the “specific activation of T2R38” value [1] was “did not trigger a specific activation of T2R38”. For the same molecule, the “specific activation of T2R38” value ([1]; listed as HSLC4) was “remained without effect on the receptor”, the “response of T2R38” value [1] was “did not elicit a response of T2R38” and the “response of T2R38” value ([1]; listed as HSLC4) was “remained without effect on the receptor”. The “percentage of surface covered” value [2, 3] was 0.08% and 2.07% and 0.35% and 0.32% and 0.65% and 0.13%, the “percentage of surface covered” value [2, 4] was 0.56% and 1.82% and 1.06% and 0.36% and 0.33% and 0.98% and the “percentage of surface covered” value [2, 5] was 0.40% and 0.69% and 0.43% and 0.56% and 1.49% and 0.68%.
In the case of CCCCCCCCCC(=O)CC(=O)N[C@H]1CCOC1=O [C12HSL, N-3-oxo-dodecanoyl-L-homoserine lactone, reference compound], the “agonist activity on T2R38 (in words)” value [1] is reported as “are not agonists of the receptor in our hands”, the “percentage of surface covered” value ([1]; 0.1mM in DMSO 0.15%) is reported as 0.46% and 1.07% and 1.52% and 0.39% and the “percentage of surface covered” value ([1]; 0.1mM in DMSO 0.3%) is reported as 0.20% and 0.64% and 1.46% and 0.93%. For the same molecule, the “specific activation of the receptor” value ([1]; 0.1 mM with either 0.3% or 0.15% DMSO in the incubation buffer) was “did not trigger any specific activation of the receptor; also recorded: did not trigger any specific activation of T2R38”, the “percentage of surface covered” value [1, 6] was 8.51% and 3.40% and 8.12% and 5.47% and 4.84% and 9.74% and the “percentage of surface covered” value [1, 7] was 2.04% and 1.92% and 1.33% and 4.51% and 5.83% and 3.09%. For the same molecule, the “average calcium response, % of the one induced by 0.1 mM of PTC” value [1] was 42%, the “specific activation of T2R38” value [1] was “did not trigger a specific activation of T2R38” and the “specific activation of T2R38” value ([1]; listed as HSLC12) was “remained without effect on the receptor”. For the same molecule, the “percentage of surface covered” value ([2]; 0.1mM in DMSO 0.15%) was 0.22% and 0.19%, the “percentage of surface covered” value ([2]; 0.1mM in DMSO 0.3%) was 0.00881% and 0.16% and the “percentage of surface covered” value [2, 6] was 0.92% and 1.51% and 1.40% and 0.48% and 0.97% and 3.05%. For the same molecule, the “percentage of surface covered” value [2, 7] was 0.58% and 7.03% and 2.23% and 2.90% and 5.38% and 0.28%.
In the case of NC(=S)Nc1ccccc1 [PTC, phenylthiocarbamide, reference compound], the “percentage of surface covered” value ([1]; PTC 1e-7 M) is reported as 0.32% and 0.0439% and 0.30% and 0.38% and 0.0433% and 0.37%, the “percentage of surface covered” value ([1]; PTC 5.31987e-7 M) is reported as 0.29% and 0.21% and 0.40% and 0.74% and the “percentage of surface covered” value ([1]; PTC 7.66061e-7 M) is reported as 0.42% and 0.94% and 0.57%. The “percentage of surface covered” value ([1]; PTC 1e-6 M) was 0.15% and 0.33% and 0.74% and 1.61% and 0.19% and 0.16%, the “percentage of surface covered” value ([1]; PTC 3.16456e-6 M) was 0.91% and 1.80% and 0.81% and 1.93% and 1.12% and 1.19% and the “percentage of surface covered” value ([1]; PTC 1e-5 M) was 9.30% and 8.69% and 5.20% and 5.77% and 8.28% and 3.33%. For the same molecule, the “percentage of surface covered” value ([1]; PTC 0.0001 M) was 16.96% and 16.52% and 12.58% and 13.19% and 14.04% and 11.95%, the “response of T2R38 PAV transfected cells (S7_fig raw data)” value ([1]; PTC 0.1 mM, T2R38 PAV, experiments 1-5) was 30% and 29% and 24% and 17% and 23% and the “percentage of surface covered” value ([1]; PTC 0.001 M) was 16.18% and 8.32% and 10.10% and 7.45% and 11.65% and 8.92%. The EC50 ([1]; mean ± SEM of n = 3 experiments) was 0.0097 ± 0.0004 mM, the “percentage of surface covered” value ([2]; PTC 1e-7 M) was 0.29% and 0.31% and 0.20% and the “percentage of surface covered” value ([2]; PTC 5.31987e-7 M) was 0.69% and 0.47%. For the same molecule, the “percentage of surface covered” value ([2]; PTC 7.66061e-7 M) was 0.32% and 0.90%, the “percentage of surface covered” value ([2]; PTC 1e-6 M) was 0.45% and 0.40% and 0.59% and the “percentage of surface covered” value ([2]; PTC 3.16456e-6 M) was 0.30% and 0.15% and 0.74%. For the same molecule, the “percentage of surface covered” value ([2]; PTC 1e-5 M) was 0.11% and 0.26% and 0.07%, the “percentage of surface covered” value ([2]; PTC 0.0001 M) was 0.06% and 0.11% and the “response of empty vector transfected cells (S7_fig raw data)” value ([2]; PTC 0.1 mM, empty vector, experiments 1-5) was 0.078% and 0.55% and 0.518% and 0.35% and 0.26%. The “percentage of surface covered” value ([2]; PTC 0.001 M) was 0.59% and 0.12% and 0.20%.
In the case of CSSC [dimethyldisulfide, dimethyl disulfide], the “agonist activity on T2R38 (in words)” value [1] is reported as “able to specifically trigger this receptor”, the EC50 [1] is reported as 3 mM and the “surface covered by activated cells (given as fraction)” value (“surface covered … (given as fraction)” below) ([1]; dimethyldisulfide 0.000251189, log10[ ] -3.6, experiment 6) is reported as 0.0087 and 0.0151. The “surface covered … (given as fraction)” value ([1]; dimethyldisulfide 0.000398107, log10[ ] -3.4, experiment 6) was 0.0033 and 0.0066, the “surface covered … (given as fraction)” value ([1]; dimethyldisulfide 0.000630957, log10[ ] -3.2, experiment 6) was 0.0100 and 0.0078 and the “surface covered … (given as fraction)” value ([1]; dimethyldisulfide 0.001, log10[ ] -3, experiment 6) was 0.0079 and 0.0134. The “surface covered … (given as fraction)” value ([1]; dimethyldisulfide 0.00158489, log10[ ] -2.8, experiment 6) was 0.0310 and 0.0369, the “surface covered … (given as fraction)” value ([1]; dimethyldisulfide 0.00398107, log10[ ] -2.4, experiment 6) was 0.1269 and the logEC50 ([1]; given in the concentration-response curve) was -2.54. The “Emax (% of positive control)” value ([1]; percentage of the response elicited by 0.1 mM PTC) was 46 % of positive control and the “percentage of surface covered” value ([2]; dimethyldisulfide 0.00251189, log10[ ] -2.6) was 0.21% and 0.13% and 0.27% and 1.93% and 1.05% and 0.36% and 1.26%.
